PMC6556873, “Rapid Covalent-Probe Discovery by Electrophile-Fragment Screening” (Journal of the American Chemical Society, 2019)
Where two headings read alike, the source gives them in different places.

Key:
[1] = molecular target: T1, NUDT7 (Homo sapiens, UniProt P0C024); assay: RapidFire MS acetyl-CoA hydrolysis, kobs vs [inhibitor]; assay type: biochemical
T1 construct: residues 14-235, E. coli, pNIC28-Bsa4, N-terminal His6 tag removed by TEV, construct 26672 Da

[2] = molecular target: T1, NUDT7; assay: as above; assay type: biochemical; conditions: covalent, inactivation constant KI from kinact/KI fit, 5 mM MgCl2, pH 7.5
[3] = molecular target: T1, NUDT7; assay: RapidFire MS acetyl-CoA hydrolysis assay; assay type: biochemical
[4] = in vitro; parameters: species or system CCD841, HEK293; conditions: human, hb2 cells, read-out: HB-2 Cells Viability (%)
[5] = in vitro; parameters: species or system HB2, HEK293; conditions: human, ccd841 cells
[6] = in vitro; parameters: species or system HB2, CCD841; conditions: human, hek293 cells
[7] = molecular target: T2, OTUB2 (OTUB2A) (Homo sapiens, UniProt Q96DC9); parameters: Intact protein LC/MS covalent labelling, fragments in pools of five, 200 uM each, 4 °C; conditions: 24 h, 4 °C, pool of five; 200 µM; covalent
T2 construct: full length residues 1-234, E. coli BL21(DE3)-R3, His tag removed by TEV, construct 27312 Da
T2 sequence (Q96DC9 1-234): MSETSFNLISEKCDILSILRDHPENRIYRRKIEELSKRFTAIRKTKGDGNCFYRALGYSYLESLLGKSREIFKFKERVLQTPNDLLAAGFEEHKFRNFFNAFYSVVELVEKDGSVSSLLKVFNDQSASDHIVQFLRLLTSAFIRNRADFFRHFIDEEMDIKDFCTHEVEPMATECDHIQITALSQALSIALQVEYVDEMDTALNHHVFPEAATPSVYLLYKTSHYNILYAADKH

[8] = molecular target: T3, BSA (Bos taurus, UniProt P02769); parameters: Intact protein LC/MS covalent labelling, fragments in pools of five, 200 uM each, 4 °C; conditions: 24 h, 4 °C, pool of five; 200 µM; covalent
T3 construct: gene ALB

[9] = molecular target: T1, NUDT7; parameters: Intact protein LC/MS covalent labelling, fragments in pools of five, 200 uM each, 4 °C; conditions: 24 h, 4 °C, pool of five; 200 µM; covalent
[10] = molecular target: T4, PCAF (Homo sapiens, UniProt Q92831); parameters: Intact protein LC/MS covalent labelling, fragments in pools of five, 200 uM each, 4 °C; conditions: 24 h, 4 °C, pool of five; 200 µM; covalent
T4 construct: gene KAT2B

[11] = molecular target: T1, NUDT7; assay: X-ray cocrystal structure; assay type: binding; conditions: covalent; C73
[12] = molecular target: T1, NUDT7; assay: X-ray crystal structure, soak; conditions: noncovalent; putative substrate binding region
[13] = molecular target: T2, OTUB2 (OTUB2A); assay: intact protein LC/MS labeling; assay type: binding; conditions: covalent; 24 h, 4 °C
[14] = molecular target: T2, OTUB2 (OTUB2A); assay: intact protein LC/MS labeling; assay type: binding; conditions: covalent; 24 h, 4 °C; remark: listed apart in the source
[15] = molecular target: T1, NUDT7; assay: intact protein LC/MS labeling; assay type: binding; conditions: covalent; 24 h, 4 °C, 2 μM protein, pools of five, pH 7.5
[16] = molecular target: T5, USP8 (Homo sapiens, UniProt P40818); assay: intact protein LC/MS labeling; assay type: binding; conditions: covalent; promiscuous compound; 24 h, 4 °C, 2 μM protein, pools of five, pH 7.5
T5 construct: residues 705-1081, E. coli, produced as NUDT7 (His tag removed by TEV), construct 44429 Da
T5 sequence (P40818 705-1081): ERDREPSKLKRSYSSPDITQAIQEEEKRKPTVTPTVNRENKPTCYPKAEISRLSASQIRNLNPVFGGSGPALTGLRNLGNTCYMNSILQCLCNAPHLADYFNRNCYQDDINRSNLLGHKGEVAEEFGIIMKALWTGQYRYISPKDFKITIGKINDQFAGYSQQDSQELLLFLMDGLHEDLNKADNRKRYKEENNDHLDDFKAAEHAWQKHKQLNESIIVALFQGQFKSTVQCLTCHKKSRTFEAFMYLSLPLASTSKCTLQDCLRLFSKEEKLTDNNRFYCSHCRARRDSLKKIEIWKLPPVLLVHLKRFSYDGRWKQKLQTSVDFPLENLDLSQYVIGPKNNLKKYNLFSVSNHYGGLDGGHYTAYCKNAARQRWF

[17] = molecular target: T6, NNMT (hNNMT) (Homo sapiens, UniProt P40261); assay: intact protein LC/MS labeling; assay type: binding; conditions: covalent; promiscuous compound; 24 h, 4 °C, 2 μM protein, pools of five, pH 7.5
T6 construct: wild type, N-terminal His6 tag kept (no cleavage described), E. coli, construct 31248 Da
T6 sequence (P40261 1-264): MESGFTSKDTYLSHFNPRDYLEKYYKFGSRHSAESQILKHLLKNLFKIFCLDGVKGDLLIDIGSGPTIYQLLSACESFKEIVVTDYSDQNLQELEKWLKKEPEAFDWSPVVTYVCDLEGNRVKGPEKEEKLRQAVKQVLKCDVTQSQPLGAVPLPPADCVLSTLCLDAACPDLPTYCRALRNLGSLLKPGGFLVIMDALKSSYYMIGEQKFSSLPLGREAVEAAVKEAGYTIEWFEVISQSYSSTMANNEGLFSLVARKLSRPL

[18] = molecular target: T6, NNMT (hNNMT); parameters: Intact protein LC/MS covalent labelling, fragments in pools of five, 200 uM each, 4 °C; conditions: 24 h, 4 °C, pool of five; 200 µM; covalent
[19] = molecular target: T7, K-Ras^G12C (Homo sapiens, UniProt P01116, G12C, species not given); assay: intact protein LC/MS labeling; assay type: binding; conditions: covalent; 24 h, 4 °C, 2 μM protein, pools of five, pH 8.0
T7 construct: gene KRAS; residues 1-169, recombinant, construct 19245 Da
T7 sequence (P01116 1-169 G12C): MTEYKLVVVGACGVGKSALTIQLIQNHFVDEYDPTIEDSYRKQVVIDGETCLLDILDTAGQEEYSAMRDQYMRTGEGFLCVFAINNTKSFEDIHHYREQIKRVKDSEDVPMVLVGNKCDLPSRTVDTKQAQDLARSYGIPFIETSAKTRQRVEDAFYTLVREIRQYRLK

T3 sequence (P02769 whole entry, the tested form may be a part): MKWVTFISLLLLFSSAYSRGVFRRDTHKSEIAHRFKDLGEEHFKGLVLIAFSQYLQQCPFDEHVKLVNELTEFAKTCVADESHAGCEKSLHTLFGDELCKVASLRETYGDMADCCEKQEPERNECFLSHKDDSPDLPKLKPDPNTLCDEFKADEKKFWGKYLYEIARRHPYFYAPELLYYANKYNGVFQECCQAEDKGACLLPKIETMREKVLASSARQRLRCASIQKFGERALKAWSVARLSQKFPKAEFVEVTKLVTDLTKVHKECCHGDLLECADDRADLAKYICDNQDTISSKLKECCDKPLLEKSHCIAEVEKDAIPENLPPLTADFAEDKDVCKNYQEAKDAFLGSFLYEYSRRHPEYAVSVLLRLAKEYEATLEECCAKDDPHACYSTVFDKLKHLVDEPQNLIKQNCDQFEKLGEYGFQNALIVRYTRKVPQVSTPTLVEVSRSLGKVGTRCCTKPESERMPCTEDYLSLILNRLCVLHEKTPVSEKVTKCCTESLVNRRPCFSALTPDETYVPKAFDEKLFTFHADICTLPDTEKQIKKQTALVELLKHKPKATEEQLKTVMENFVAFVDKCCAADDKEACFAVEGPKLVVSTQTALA
T4 sequence (Q92831 whole entry, the tested form may be a part): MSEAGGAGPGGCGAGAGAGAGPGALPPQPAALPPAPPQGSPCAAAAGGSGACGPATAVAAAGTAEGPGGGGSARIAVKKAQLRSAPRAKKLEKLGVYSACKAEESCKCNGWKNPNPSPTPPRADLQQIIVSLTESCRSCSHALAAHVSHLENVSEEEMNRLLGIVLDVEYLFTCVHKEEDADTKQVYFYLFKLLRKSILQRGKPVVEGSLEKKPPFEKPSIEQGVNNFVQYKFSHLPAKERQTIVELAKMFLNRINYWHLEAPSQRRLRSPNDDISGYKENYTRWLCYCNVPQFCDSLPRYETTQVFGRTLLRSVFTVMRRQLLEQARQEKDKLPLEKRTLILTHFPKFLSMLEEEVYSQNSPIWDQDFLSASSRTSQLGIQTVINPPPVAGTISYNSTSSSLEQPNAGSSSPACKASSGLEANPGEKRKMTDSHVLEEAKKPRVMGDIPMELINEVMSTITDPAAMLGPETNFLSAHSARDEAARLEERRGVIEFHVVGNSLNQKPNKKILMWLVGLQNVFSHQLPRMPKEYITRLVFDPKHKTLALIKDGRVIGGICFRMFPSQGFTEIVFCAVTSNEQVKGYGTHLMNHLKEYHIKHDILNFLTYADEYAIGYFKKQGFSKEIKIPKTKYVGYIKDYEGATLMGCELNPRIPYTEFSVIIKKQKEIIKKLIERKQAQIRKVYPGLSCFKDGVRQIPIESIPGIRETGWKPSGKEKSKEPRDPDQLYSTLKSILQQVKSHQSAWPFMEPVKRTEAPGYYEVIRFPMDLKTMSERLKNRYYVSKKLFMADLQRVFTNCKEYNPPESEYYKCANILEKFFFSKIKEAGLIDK
T1 sequence (P0C024 14-235): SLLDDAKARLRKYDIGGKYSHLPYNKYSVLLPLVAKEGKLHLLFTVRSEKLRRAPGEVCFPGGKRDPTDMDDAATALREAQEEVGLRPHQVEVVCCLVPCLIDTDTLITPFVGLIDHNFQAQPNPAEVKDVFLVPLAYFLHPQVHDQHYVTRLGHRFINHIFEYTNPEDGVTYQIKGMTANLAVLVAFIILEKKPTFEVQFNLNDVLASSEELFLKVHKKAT

Row | SMILES | OTUB2 [7] | BSA [8] | NUDT7 [9] | PCAF [10] | NNMT [18] | viability at 48 h, 10 µM [4] | viability at 48 h, 10 µM [5] | viability at 48 h, 10 µM [6] | other results
1 | O=C(Cc1cccc(C2CCCN2C(=O)CCl)c1)Nc1cccc(Cl)c1 (racemic) [NUDT7-COV-1] |  |  |  |  |  |  |  |  | kinact/KI [1]: 757 M⁻¹ s⁻¹; KI (inactivation) [2]: 13.2 µM; IC50 [3]: 1.1 µM
2 | O=C(Cc1cccc(O)c1)Nc1cccc(Cl)c1 [NUDT7-REV-1] |  |  |  |  |  |  |  |  | X-ray crystal structure, soak [12]: soaked them into NUDT7 crystals, which yielded a structure in complex with compound NUDT7-REV-1
3 | O=C(CCl)NNC(=O)C(c1ccccc1)c1ccccc1 [OTUB2-COV-17] |  |  |  |  |  |  |  |  | % labeling at 100 μM [13]: 100%
4 | O=C(CCl)NNC(=O)C1CC1c1ccc(Cl)cc1 (stereo not drawn) [OTUB2-COV-22] |  |  |  |  |  |  |  |  | % labeling at 5 μM [14]: 55%
5 | O=C(CCl)N1CCCC1c1ccc2c(c1)OCCCO2 (stereo not drawn) [PCM-0102512] | 0 | 0 | 0.88 | 0 |  | 8.3% | 19.7% | 3.8% | % labeling at 200 μM [15]: 88%
6 | COc1ccc(C2CCCCCN2C(=O)CCl)cc1 (stereo not drawn) [PCM-0102558] | 0 | 0 | 1 | 0 |  | 27.4% | 11% | 15.3% | kinact/KI [1]: 233 M⁻¹ s⁻¹
7 | Cl.O=C(CCl)N1CCN(Cc2ccc(Cl)cc2)CC1 [PCM-0102818] | 0.17 | 0 | 0 | 0 | 0.14 | 8.2% | 31.6% | 7.8% | % labeling at 200 μM [19]: 63%
8 | O=C(CCl)NC1(c2ccc3c(c2)OCCO3)CCCC1 [PCM-0102951] | 0 | 0 | 1 | 0 |  | 72.7% | 69.3% | 56.4% | X-ray cocrystal structure [11]: cocrystal structures of compounds PCM-0102951, PCM-0102558, and PCM-0102716 bound to NUDT7
9 | CN(Cc1cc(Br)cs1)C(=O)CCl [PCM-0103081] | 0 | 0 | 0 | 0 | 0 | 5.1% | 45.5% | 11.9% | 

Now from value to compound, other results behind:

Row | OTUB2 [7] | BSA [8] | NUDT7 [9] | PCAF [10] | NNMT [18] | SMILES | viability at 48 h, 10 µM [4] | viability at 48 h, 10 µM [5] | viability at 48 h, 10 µM [6] | other results
10 | 0.09 | 0 | 0.68 | 0 |  | COc1cccc(C2CCCN2C(=O)CCl)c1 (racemic) [PCM-0102716] | 7.6% | 34.4% | 3.6% | X-ray cocrystal structure [11]: cocrystal structures of compounds PCM-0102951, PCM-0102558, and PCM-0102716 bound to NUDT7
11 | 0 | 0 | 1 | 0 |  | O=C(CCl)N1CCCC1c1ccc2c(c1)OCCO2 (stereo not drawn) [PCM-0102298] | 5.3% | 21.6% | 4.5% | % labeling at 200 μM [15]: 100%
12 | 0 | 0 | 0.53 | 0 | 1 | O=C(CCl)Nc1nc(-c2cc(F)ccc2F)cs1 [PCM-0102496] | 3.9% | 35.7% | 2.2% | % labeling at 200 μM [16]: > 50%; % labeling at 200 μM [17]: > 50%
13 | 0 | 0 | 1 | 0 | 0 | COc1ccc(C2CCCN2C(=O)CCl)cc1 (stereo not drawn) [PCM-0102938] | 12% | 24.3% | 6.4% | % labeling at 200 μM [15]: 100%
14 | 0 | 0 | 0 | 0 | 0.2 | C=CC(=O)NCc1cc(F)c(C(F)(F)F)cc1F [PCM-0103078] | 101% | 96.9% | 88.4% | 
